Columns and labels:
[1] = test system: cardiac fibroblasts (CFs); test: Vimentin localisation in CFs by immunofluorescence microscopy; format: cell-based, rat; conditions: fragment expressed
Description: NP's ability to inhibit growth factor-induced CF differentiation into myofibroblasts was determined as follows. CFs were transiently transfected with insertless pcDNA3 vector or pcDNA3 encoding sNRF^(806-900) (see Example 7). The transfected CFs were then treated for 48 hours with 10 ng/ml basic fibroblast growth factor (FGF; Sigma-Aldrich #F0291) in the presence or absence of 100 nM ANP. Alpha-smooth muscle actin (α-SMA) protein expression, the principal marker of CF differentiation, was assessed by Western blotting and immunofluorescence microscopy. Vimentin staining was used as a loading control because it is expressed equally in fibroblasts and transdifferentiated myofibroblasts.
For the immunofluorescence microscopy, slide wells were treated as described in Example 7 and incubated with anti-α-SMA and anti-vimentin antibody as well as phalloidin to stain for actin. Briefly, cells were rinsed twice with phosphate-buffered saline (PBS) and fixed with 3.7% formaldehyde in PBS for 10 minutes. After fixation, cells were rinsed with PBS and permeabilized with 0.3% Triton X-100 in PBS for 10 minutes and blocked for 1 hour in 1% horse serum, 0.2% bovine serum albumin in PBS. Cells were then incubated with primary α-SMA antibody (ABCAM ab7817) and primary vimentin antibody (ABCAM ab7783) diluted in blocking solution for 1 hour and washed three times with blocking solution for 5 minutes. […]

[2] = biological target: T1, PKG (Rattus norvegicus, UniProt A9LNM8); test: Co-immunoprecipitation of PKG with FLAG-tagged NPRA fragments in primary CFs; format: binding; conditions: 5'-FLAG-tagged fragment in transfected CFs, anti-FLAG M2 affinity gel
T1 construct: endogenous in cells; host or cells: primary neonatal rat cardiac fibroblasts transfected with 5'-FLAG sNRF fragments
T1 sequence (A9LNM8 1-671): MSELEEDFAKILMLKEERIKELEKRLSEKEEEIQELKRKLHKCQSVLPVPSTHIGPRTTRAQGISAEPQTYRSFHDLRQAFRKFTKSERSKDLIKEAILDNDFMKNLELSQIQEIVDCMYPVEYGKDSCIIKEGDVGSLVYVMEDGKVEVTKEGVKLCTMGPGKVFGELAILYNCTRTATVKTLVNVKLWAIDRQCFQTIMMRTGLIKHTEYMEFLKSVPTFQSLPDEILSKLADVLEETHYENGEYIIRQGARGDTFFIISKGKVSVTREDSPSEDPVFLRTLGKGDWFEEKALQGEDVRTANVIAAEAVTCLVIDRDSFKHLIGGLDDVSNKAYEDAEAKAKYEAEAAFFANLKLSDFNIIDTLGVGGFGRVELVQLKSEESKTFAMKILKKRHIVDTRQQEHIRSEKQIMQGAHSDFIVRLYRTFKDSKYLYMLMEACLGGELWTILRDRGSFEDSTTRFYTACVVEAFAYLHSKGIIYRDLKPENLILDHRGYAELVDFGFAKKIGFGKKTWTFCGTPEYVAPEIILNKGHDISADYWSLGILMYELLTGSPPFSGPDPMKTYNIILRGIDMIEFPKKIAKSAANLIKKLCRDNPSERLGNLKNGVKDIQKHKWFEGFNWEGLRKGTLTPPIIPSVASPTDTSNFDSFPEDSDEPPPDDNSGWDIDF
Description: Neonatal rat ventricular fibroblasts (CFs) were cultured from 1 to 2-day-old Harlan Sprague-Dawley rats as described previously (Simpson, Circulation Res. 56:884-94, 1985). Briefly, ventricles were dissected free from atria and quartered. Following dissociation in ADS buffer containing 1.5 mg/ml trypsin (Gibco #27250-018) and 1% DNase solution (2 mg/ml DNase type II, 150 mM NaCl) with serum neutralization the collected cells were pre-incubated in media at 37° C. for 90 minutes to allow CF attachment to the bottom of culture dishes. CFs were incubated in plating media for 48 hours, divided into 6-well culture plates or dual-well chamberslides, and grown to 50% confluency in DMEM with 10% FBS prior to use.
CFs were transiently transfected with nucleic acid molecules encoding sNRF^(806-1061), sNRF^(806-900), or sNRF^(806-860) using routine methods. Briefly, PCR-generated, 5′-FLAG epitope-tagged sNRFs were subcloned into the BamHI and EcoRI sites of pCDNA3 (Invitrogen) and sequenced to verify construction accuracy. […]
The ability of the NPRA fragments to immunoprecipitate PKG was determined in the primary CF cells transfected with the 5′-FLAG epitope-tagged NPRA fragments as follows. […] Bound antibody was detected with chemiluminescent substrate (Western Lightning ECL, PerkinElmer Life Sciences).

sNRF^(806-900): intracellular NPRA fragment, residues 806-900, excludes the cyclase-containing domain; shortest fragment observed to associate with PKG
ANP-associated nuclear to cytosolic translocation of vimentin [1]: inhibited
co-immunoprecipitation of PKG [2]: co-immunoprecipitated PKG

Source: patent publication US7943296B2, “Methods of screening using a natriuretic peptide receptor” (Oregon Health & Science University, priority 2005, dated 2011)
